Usually IC50 stands for the concentration at which inhibition is half-maximal. A low value points to inhibition by little substance.

The subject of assay [1] is HCV replicon genotype 1a. In words: microbe, parasite or virus in culture. It is filed as cell-based. The following applies: Hepatitis C virus, 96 h, HCV genotype 1a replicon cells, 96 hours incubation, NS3/4A ELISA readout. (A replicon is a self-replicating genome or part of one, used to study replication in cells.)
In assay [2] the test system is HCV replicon genotype 1b. In words: microbe, parasite or virus in culture. It is filed as cell-based. The following applies: Hepatitis C virus, 96 h, HCV genotype 1b replicon cells, 96 hours incubation, NS3/4A ELISA readout.

Structures are written as SMILES.

For `CNC(=O)c1c(-c2ccc(F)cc2)oc2cc(N(C)S(C)(=O)=O)c(-c3cc(F)c4ncn(-c5cc(F)cc(F)c5)c4c3)cc12` [Compound 30], the IC50 in assay [1] is 6.3 nM; in assay [2] it was 2.8 nM.
As for `CNC(=O)c1c(-c2ccc(F)cc2)oc2cc(N(C)S(C)(=O)=O)c(-c3ccc4ncn(-c5ccc(C#N)cc5)c4c3)cc12` [Compound 5], the IC50 in assay [1] came to 2.1 nM; in assay [2] it was 0.8 nM.
The matching figures for `CNC(=O)c1c(-c2ccc(F)cc2)oc2cc(N(C)S(C)(=O)=O)c(-c3cccc4nc(-c5ccccc5)oc34)cc12` [Compound 85]: 460 nM and 235 nM.
Regarding `CNC(=O)c1c(-c2ccc(F)cc2)oc2cc(N(C)S(C)(=O)=O)c(-c3ccc4[nH]c(-c5ccccc5)nc4c3)cc12` [Compound 102], the concentration for half-maximal inhibition (IC50) in assay [1] came out at 14.6 nM; in assay [2], 5.1 nM.
The matching figures for `CNC(=O)c1c(-c2ccc(F)cc2)oc2cc(N(C)S(C)(=O)=O)c(-c3ccc4ncn(-c5ccccc5Cl)c4c3)cc12` [Compound 11]: 38.9 nM and 3.5 nM.
As to `CNC(=O)c1c(-c2ccc(F)cc2)oc2cc(N(C)S(C)(=O)=O)c(-c3ccn4cc(-c5ccccc5)nc4c3)cc12` [Compound 89], the IC50 was 7 nM in assay [1] and 2.7 nM in assay [2].
As to `CNC(=O)c1c(-c2ccc(F)cc2)oc2cc(N(C)S(C)(=O)=O)c(-c3ccc4ncn(-c5cccc(C#N)c5)c4c3)cc12` [Compound 6], the IC50 in assay [1] came out at 10.6 nM; in assay [2] it was 1.2 nM.
Take `CNC(=O)c1c(-c2ccc(F)cc2)oc2cc(N(C)S(C)(=O)=O)c(-c3ncc4ncn(-c5ccc(F)cc5)c4n3)cc12` [Compound 40]: the values for the IC50 in assay [1] and in assay [2] were 338 nM and 20.2 nM, respectively.
For `CNC(=O)c1c(-c2ccc(F)cc2)oc2cc(N(C)S(C)(=O)=O)c(-c3cc(OC)c4nc(C)n(-c5cc(F)cc(F)c5)c4c3)cc12` [Compound 37] the same measures were 6.8 nM and 4.3 nM.
For `CNC(=O)c1c(-c2ccc(F)cc2)oc2cc(N(C)S(C)(=O)=O)c(-c3ccc4ncn(-c5ccc(C(F)(F)F)cc5)c4c3)cc12` [Compound 7] the same measures were 2.6 nM and 2.2 nM.
The matching figures for `CNC(=O)c1c(-c2ccc(F)cc2)oc2cc(N(C)S(C)(=O)=O)c(-c3ccc4ncc(-c5ccc(C(F)(F)F)cc5)n4n3)cc12` [Compound 94, 2-(4-fluorophenyl)-N-methyl-6-(N-methylmethylsulfonamido)-5-(3-(4-(trifluoromethyl)phenyl)imidazo[1,2-b]pyridazin-6-yl)benzofuran-3-carboxamide]: 75.7 nM and 12.3 nM.
As for `CNC(=O)c1c(-c2ccc(F)cc2)oc2cc(N(C)S(C)(=O)=O)c(-c3cc(-c4nc5ncccc5o4)c4occc4c3)cc12` [Compound 97, 2-(4-fluorophenyl)-N-methyl-6-(N-methylmethylsulfonamido)-7′-(oxazolo[4,5-b]pyridin-2-yl)-[5,5′-bibenzofuran]-3-carboxamide], the IC50 was 2.7 nM in assay [1] and 1.3 nM in assay [2].
For `CNC(=O)c1c(-c2ccc(F)cc2)oc2cc(N(C)S(C)(=O)=O)c(-c3ccc4[nH]c(-c5ccccc5)nc4n3)cc12` [Compound 101] the same measures were 79.1 nM and 17 nM.
For `CNC(=O)c1c(-c2ccc(F)cc2)oc2cc(N(C)S(C)(=O)=O)c(-c3cc(-c4nc5c(F)cccc5o4)c4occc4c3)cc12` [Compound 98] the same measures were 3.7 nM and 4.1 nM.
For `CNC(=O)c1c(-c2ccc(F)cc2)oc2cc(N(C)S(C)(=O)=O)c(-c3ccc4[nH]nc(-c5ccc(C(F)(F)F)cc5)c4c3)cc12` [Compound 75] the same measures were 8 nM and 7.3 nM.
In the case of `CNC(=O)c1c(-c2ccc(F)cc2)oc2cc(N(C)S(C)(=O)=O)c(-c3ccc4c(ccn4-c4cccnc4)c3)cc12` [Compound 57], the IC50 in assay [1] was found to be 13.9 nM; in assay [2] it was 3 nM.
Take `CNC(=O)c1c(-c2ccc(F)cc2)oc2cc(N(C)S(C)(=O)=O)c(-c3ccc4ccn(-c5ccc(F)cc5)c4n3)cc12` [Compound 64]: the IC50 in assay [1] was 409 nM; in assay [2], 76.1 nM.
For `CNC(=O)c1c(-c2ccc(F)cc2)oc2cc(N(C)S(C)(=O)=O)c(-c3cc(OC)c4[nH]c(=O)n(-c5cc(F)cc(F)c5)c4c3)cc12` [Compound 80, 5-(3-(3,5-difluorophenyl)-7-methoxy-2-oxo-2,3-dihydro-1H-benzo[d]imidazol-5-yl)-2-(4-fluorophenyl)-N-methyl-6-(N-methylmethylsulfonamido)benzofuran-3-carboxamide] the same measures were 9 nM and 6.6 nM.
For `CNC(=O)c1c(-c2ccc(F)cc2)oc2cc(N(C)S(C)(=O)=O)c(-c3ccc4ncn(-c5ccc(OC(F)(F)F)cc5)c4c3)cc12` [Compound 17] the same measures were 37.6 nM and 12.8 nM.
For `CNC(=O)c1c(-c2ccc(F)cc2)oc2cc(N(C)S(C)(=O)=O)c(-c3ccc4ccn(-c5ccc(C(F)(F)F)cc5)c4c3)cc12` [Compound 61] the same measures were 34.2 nM and 10.1 nM.
In the case of `CNC(=O)c1c(-c2ccc(F)cc2)oc2cc(N(C)S(C)(=O)=O)c(-c3cc4c(cn3)ncn4-c3ccc(F)cc3)cc12` [Compound 46], the IC50 was determined as 74.5 nM in assay [1] and 10.7 nM in assay [2].
For `CNC(=O)c1c(-c2ccc(F)cc2)oc2cc(N(C)S(C)(=O)=O)c(-c3cc(F)c4ncn(-c5ccc(F)c(F)c5)c4c3)cc12` [Compound 29] the same measures were 5 nM and 3.3 nM.
With `CNC(=O)c1c(-c2ccc(F)cc2)oc2cc(N(C)S(C)(=O)=O)c(-c3ccc4ncn(C5CCCN(C(=O)OC(C)(C)C)C5)c4c3)cc12` (centres unmarked) [Compound 24], the IC50 in assay [1] amounted to 760 nM; in assay [2] it was 82.6 nM.
For `CNC(=O)c1c(-c2ccc(F)cc2)oc2cc(N(C)S(C)(=O)=O)c(-c3ccc4nc(-c5ccc(F)cc5)cn4n3)cc12` [Compound 113] the same measures were 186 nM and 14.9 nM.
The matching figures for `CNC(=O)c1c(-c2ccc(F)cc2)oc2cc(N(C)S(C)(=O)=O)c(-c3cn4c(-c5ccc(C(F)(F)F)cc5)cnc4cn3)cc12` [Compound 92]: 12.9 nM and 5.1 nM.
The matching figures for `CNC(=O)c1c(-c2ccc(F)cc2)oc2cc(N(C)S(C)(=O)=O)c(-c3ccc4ccn(-c5ccc(F)cc5F)c4n3)cc12` [Compound 66]: 2270 nM and 225 nM.
As to `CNC(=O)c1c(-c2ccc(F)cc2)oc2cc(N(C)S(C)(=O)=O)c(-c3ncc4ncn(-c5ccc(C#N)cc5)c4n3)cc12` [Compound 42], the IC50 in assay [1] was found to be 1520 nM; in assay [2] it was 299 nM.
As to `CNC(=O)c1c(-c2ccc(F)cc2)oc2cc(N(C)S(C)(=O)=O)c(-c3ccc4ncn(-c5ccccc5)c4c3)cc12` [Compound 2], the IC50 in assay [1] worked out at 13.2 nM; in assay [2] it was 2.5 nM.
The matching figures for `CNC(=O)c1c(-c2ccc(F)cc2)oc2cc(N(C)S(C)(=O)=O)c(-c3ccc4nc(C)n(-c5ccccc5)c4c3)cc12` [Compound 18]: 16.6 nM and 2.1 nM.
For `CNC(=O)c1c(-c2ccc(F)cc2)oc2cc(N(C)S(C)(=O)=O)c(-c3cnc4ccn(-c5ccc(F)cc5)c4c3)cc12` [Compound 47, 2-(4-fluorophenyl)-5-(1-(4-fluorophenyl)-1H-pyrrolo[3,2-b]pyridin-6-yl)-N-methyl-6-(N-methylmethylsulfonamido)benzofuran-3-carboxamide] the same measures were 2.1 nM and 1.5 nM.
The matching figures for `CNC(=O)c1c(-c2ccc(F)cc2)oc2cc(N(C)S(C)(=O)=O)c(-c3ccc4ncn(-c5cccc(C(F)(F)F)c5)c4c3)cc12` [Compound 8]: 27.7 nM and 3.9 nM.
Consider `CNC(=O)c1c(-c2ccc(F)cc2)oc2cc(N(C)S(C)(=O)=O)c(-c3ccc4ncn(C5CCN(C(=O)OC(C)(C)C)CC5)c4c3)cc12` [Compound 23], for which the results for the IC50 in assay [1] and in assay [2] were 36.7 nM and 8.2 nM, respectively.
The matching figures for `CNC(=O)c1c(-c2ccc(F)cc2)oc2cc(N(C)S(C)(=O)=O)c(-c3cnc4ccn(-c5ccc(C#N)cc5)c4c3)cc12` [Compound 49]: 8.3 nM and 3.3 nM.
For `CNC(=O)c1c(-c2ccc(F)cc2)oc2cc(N(C)S(C)(=O)=O)c(-c3cnc4ccn(-c5ccc(Cl)cc5)c4c3)cc12` [Compound 50] the same measures were 3.2 nM and 4.1 nM.
Regarding `CNC(=O)c1c(-c2ccc(F)cc2)oc2cc(N(C)S(C)(=O)=O)c(-c3ccc4ncn(-c5ccccc5F)c4c3)cc12` [Compound 3], the IC50 in assay [1] was 68 nM; in assay [2] it was 5.8 nM.
The matching figures for `CNC(=O)c1c(-c2ccc(F)cc2)oc2cc(N(C)S(C)(=O)=O)c(-c3ccc4oc(Cc5ccc(F)cc5)nc4n3)cc12` [Compound 84, 5-(2-(4-fluorobenzyl)oxazolo[4,5-b]pyridin-5-yl)-2-(4-fluorophenyl)-N-methyl-6-(N-methylmethylsulfonamido)benzofuran-3-carboxamide]: 53.7 nM and 8.6 nM.
The matching figures for `CNC(=O)c1c(-c2ccc(F)cc2)oc2cc(N(C)S(C)(=O)=O)c(-c3cc(F)c4ncn(-c5ccc(F)c(C(N)=O)c5)c4c3)cc12` [Compound 110]: 111 nM and 13.8 nM.
The matching figures for `CNC(=O)c1c(-c2ccc(F)cc2)oc2cc(N(C)S(C)(=O)=O)c(-c3cc(F)c4nc(C)n(-c5cc(F)cc(F)c5)c4c3)cc12` [Compound 34]: 24.8 nM and 4.3 nM.
In the case of `CNC(=O)c1c(-c2ccc(F)cc2)oc2cc(N(C)S(C)(=O)=O)c(-c3ccc4ccn(Cc5ccc(F)cc5)c4c3)cc12` [Compound 68], the IC50 was 54.2 nM in assay [1] and 18.6 nM in assay [2].
For `CNC(=O)c1c(-c2ccc(F)cc2)oc2cc(N(C)S(C)(=O)=O)c(-c3ccc4c(ccn4-c4ccncc4)c3)cc12` [Compound 58] the same measures were 7.2 nM and 2.6 nM.

The record behind these values is patent US20150246902A1, “SUBSTITUED BENZOFURAN COMPOUNDS AND METHODS OF USE THEREOF FOR THE TREATMENT OF VIRAL DISEASES” (priority 2011, published 2015).
